Assays:
Experiment in all cases: relative viability (nuclei count vs DMSO), 5 days (fraction); higher = more cells survive
NCI-H1651 = conditions: first compound 0.02 µM
Summary of the method: (§1)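 Lung cancer cell lines in 1536-well plates were dosed by pin tool the day after seeding, either with one drug alone or with a fixed anchor-drug dose plus five library-drug doses (not always all listed) in √10 steps. After 5 days, cells were fixed and their nuclei stained in one step (final 0.05% Triton X-100, 1% formaldehyde, 1 ug/ml Hoechst), then counted on 4× images. Relative viability is the nuclei count in treated wells divided by that in vehicle wells. Values are medians of duplicate plates.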

NCI-H3122 = system: NCI-H3122
Summary of the method: as §1

NCI-H2228 = system: NCI-H2228
Summary of the method: as §1

CAL-12T = system: CAL-12T
Summary of the method: as §1

NCI-H2087 = system: NCI-H2087
Summary of the method: as §1

NCI-H2405 = system: NCI-H2405
Summary of the method: as §1

NCI-H2170 = system: NCI-H2170
Summary of the method: as §1

ChaGo-K-1 = system: ChaGo-K-1
Summary of the method: as §1

HCC-78 = system: HCC-78
Summary of the method: as §1

LC-2-ad = system: LC-2-ad
Summary of the method: as §1

HCC-366 = system: HCC-366
Summary of the method: as §1

PC-3 [JPC-3] = system: PC-3 [JPC-3]
Summary of the method: as §1

For `CC(=O)O[C@@]12CO[C@@H]1C[C@H](O)[C@@]1(C)C(=O)[C@H](O)C3=C(C)[C@@H](OC(=O)[C@H](O)[C@@H](NC(=O)OC(C)(C)C)c4ccccc4)C[C@@](O)([C@@H](OC(=O)c4ccccc4)[C@H]21)C3(C)C` [Docetaxel] + COc1cc2c(Oc3ccc(NC(=O)C4(C(=O)Nc5ccc(F)cc5)CC4)cc3F)ccnc2cc1OCCCN1CCOCC1 [Foretinib] (partner 0.25 µM), the relative viability (NCI-H1651) was 0.107, the relative viability (NCI-H3122; first compound 0.0002 µM) was 0.993 and the relative viability (NCI-H3122; first compound 0.000632 µM) was 0.901. It also gave a relative viability (NCI-H3122; first compound 0.002 µM) of 0.761, a relative viability (NCI-H3122; first compound 0.006325 µM) of 0.16 and a relative viability (NCI-H3122; first compound 0.02 µM) of 0.106. For the same compound, the relative viability (NCI-H2228; first compound 0.0002 µM) was 0.785, the relative viability (NCI-H2228; first compound 0.000632 µM) was 0.222 and the relative viability (NCI-H2228; first compound 0.002 µM) was 0.185. It also gave a relative viability (NCI-H2228; first compound 0.006325 µM) of 0.145, a relative viability (NCI-H2228; first compound 0.02 µM) of 0.137 and a relative viability (CAL-12T; first compound 0.0002 µM) of 0.979. For the same compound, the relative viability (CAL-12T; first compound 0.000632 µM) was 0.729, the relative viability (CAL-12T; first compound 0.002 µM) was 0.238 and the relative viability (CAL-12T; first compound 0.006325 µM) was 0.216. For the same compound, the relative viability (CAL-12T; first compound 0.02 µM) was 0.163, the relative viability (NCI-H2087; first compound 0.0002 µM) was 0.955 and the relative viability (NCI-H2087; first compound 0.000632 µM) was 0.477. For the same compound, the relative viability (NCI-H2087; first compound 0.002 µM) was 0.249, the relative viability (NCI-H2087; first compound 0.006325 µM) was 0.115 and the relative viability (NCI-H2087; first compound 0.02 µM) was 0.105. It also gave a relative viability (NCI-H2405; first compound 0.0002 µM) of 1.05, a relative viability (NCI-H2405; first compound 0.000632 µM) of 1 and a relative viability (NCI-H2405; first compound 0.002 µM) of 0.6. For the same compound, the relative viability (NCI-H2405; first compound 0.006325 µM) was 0.402, the relative viability (NCI-H2405; first compound 0.02 µM) was 0.306 and the relative viability (NCI-H2170; first compound 0.0002 µM) was 0.995. It also gave a relative viability (NCI-H2170; first compound 0.000632 µM) of 0.962, a relative viability (NCI-H2170; first compound 0.002 µM) of 0.754 and a relative viability (NCI-H2170; first compound 0.006325 µM) of 0.232. It also gave a relative viability (NCI-H2170; first compound 0.02 µM) of 0.203, a relative viability (ChaGo-K-1; first compound 0.0002 µM) of 0.89 and a relative viability (ChaGo-K-1; first compound 0.000632 µM) of 0.824. For the same compound, the relative viability (ChaGo-K-1; first compound 0.002 µM) was 0.439, the relative viability (ChaGo-K-1; first compound 0.006325 µM) was 0.329 and the relative viability (ChaGo-K-1; first compound 0.02 µM) was 0.174. It also gave a relative viability (HCC-78; first compound 0.0002 µM) of 0.634, a relative viability (HCC-78; first compound 0.000632 µM) of 0.493 and a relative viability (HCC-78; first compound 0.002 µM) of 0.461. For the same compound, the relative viability (HCC-78; first compound 0.006325 µM) was 0.42, the relative viability (HCC-78; first compound 0.02 µM) was 0.34 and the relative viability (LC-2-ad; first compound 0.0002 µM) was 0.882. For the same compound, the relative viability (LC-2-ad; first compound 0.000632 µM) was 0.494, the relative viability (LC-2-ad; first compound 0.002 µM) was 0.441 and the relative viability (LC-2-ad; first compound 0.006325 µM) was 0.395. The relative viability (HCC-366; first compound 0.0002 µM) was 0.85, the relative viability (HCC-366; first compound 0.000632 µM) was 0.122 and the relative viability (HCC-366; first compound 0.002 µM) was 0.201. For the same compound, the relative viability (HCC-366; first compound 0.006325 µM) was 0.0376, the relative viability (HCC-366; first compound 0.02 µM) was 0.0329 and the relative viability (PC-3 [JPC-3]; first compound 0.0002 µM) was 0.962. It also gave a relative viability (PC-3 [JPC-3]; first compound 0.000632 µM) of 0.945, a relative viability (PC-3 [JPC-3]; first compound 0.002 µM) of 0.544 and a relative viability (PC-3 [JPC-3]; first compound 0.006325 µM) of 0.179. For the same compound, the relative viability (PC-3 [JPC-3]; first compound 0.02 µM) was 0.149.
